In patent US9469616B2, “Cyclic compounds and methods of making and using the same” (Cellceutix Corporation, priority 2011, dated 2016):
≈ marks a conversion by molar mass, not a printed value.

These molecules were tested on E. coli (25922) (assay: MIC assay (Table 1)). Details: Escherichia coli, isolate 25922.
Assay type: cell-based

Compound | MIC50 [µg/mL]
N=C(N)NCCCOc1ccc(-n2cc(-c3ccc4ccc(-c5cn(-c6ccc(OCCCNC(=N)N)c(OCCCNC(=N)N)c6)nn5)cc4c3)nn2)cc1OCCCNC(=N)N [Compound 104] | > 50
NCCCOc1cc(-c2cn(-c3cc(OCCCN)cc(OCCCN)c3)nn2)cc(-c2cn(-c3cc(OCCCN)cc(OCCCN)c3)nn2)c1 [Compound 105] | 50 (≈ 68.5 µM)
N=C(N)NCCCOc1cc(-c2cn(-c3cccc(OCCCNC(=N)N)c3)nn2)cc(-c2cn(-c3cccc(OCCCNC(=N)N)c3)nn2)c1 [Compound 106] | 25 (≈ 35.2 µM)
NCCCOc1cc(-c2cn(-c3cccc(OCCCN)c3)nn2)cc(-c2cn(-c3cccc(OCCCN)c3)nn2)c1 [Compound 107] | > 50

These molecules were tested on S. aureus (27660) (assay: MIC assay (Table 1)). Details: Staphylococcus aureus, isolate 27660.
Assay type: cell-based

Compound | MIC50 [µg/mL]
N=C(N)NCCCOc1ccc(-n2cc(-c3ccc4ccc(-c5cn(-c6ccc(OCCCNC(=N)N)c(OCCCNC(=N)N)c6)nn5)cc4c3)nn2)cc1OCCCNC(=N)N [Compound 104] | 25 (≈ 28.6 µM)
NCCCOc1cc(-c2cn(-c3cc(OCCCN)cc(OCCCN)c3)nn2)cc(-c2cn(-c3cc(OCCCN)cc(OCCCN)c3)nn2)c1 [Compound 105] | 25 (≈ 34.3 µM)
N=C(N)NCCCOc1cc(-c2cn(-c3cccc(OCCCNC(=N)N)c3)nn2)cc(-c2cn(-c3cccc(OCCCNC(=N)N)c3)nn2)c1 [Compound 106] | 1.56 (≈ 2.2 µM)
NCCCOc1cc(-c2cn(-c3cccc(OCCCN)c3)nn2)cc(-c2cn(-c3cccc(OCCCN)c3)nn2)c1 [Compound 107] | 50 (≈ 85.7 µM)

What follows are molecules tested on E. faecalis (29212) (assay: MIC assay (Table 1)). Details: Enterococcus faecalis, isolate 29212.
Assay type: cell-based
Protocol: (§1) The compounds are screened for antimicrobial activity against a number of clinically relevant pathogens. Minimum Inhibitory Concentrations (MIC) of each of the compounds are determined using standard procedures for clinical ocular isolates of Ciprofloxacin Susceptible (CS) S. aureus (CSSA), Ciprofloxacin Resistant (CR) S. aureus (CRSA), CS S. epidermidis (CSSE), CR S. epidermidis (CRSE), St. pneumoniae (SP), St. viridans group (SV), Moraxella Species (MS) (including Moraxella catarrhalis), H. influenzae (HI), P. aeruginosa (PA), Serratia marcescens (SM), S. aureus fluoroquinolone-susceptible, S. aureus fluoroquinolone-resistant, S. epidermidis (Coagulase-negative Staphylococcus) fluoroquinolone-susceptible, S. epidermidis (Coagulase-negative Staphylococcus) fluoroquinolone-resistant, and Serratia marcescens.
(§2) On the day of testing, a 640 μg/m (1280 μg/m for Serratia marcescens and Pseudomonas aeruginosa) concentration is prepared from a 1% stock solution in 0.01% acetic acid, 0.2% BSA in polypropylene tubes.
(§3) Ten μl of diluted 10× test agents is added to each well of one row of the 96 well polypropylene plates from column 2 to column 12 (column 1 is a control for bacteria alone, with no peptide). […] The same peptide is in each of the 8 rows. One plate contains dilutions of one test agent and 8 bacterial isolates.
(§4) Ninety μl of the bacterial suspensions is dispensed in each well from column 1 to column 12. Each bacterial isolate is placed in one row of a 96 well polypropylene plate containing the test agents. The plates are placed on shaker at 15 minutes at room temperature, and then incubated at 37° C. overnight. MICs are determined visually as the lowest concentration of drug that inhibits visible bacterial growth.
(§5) Data is expressed as MIC50 in μg/ml. The bacterial isolates were as follows: E. coli (25922); S. aureus (27660); E. faecalis (29212); P. aeruginosa (10145); and K. pneumoniae (13883).

Compound | MIC50 [µg/mL]
N=C(N)NCCCOc1ccc(-n2cc(-c3ccc4ccc(-c5cn(-c6ccc(OCCCNC(=N)N)c(OCCCNC(=N)N)c6)nn5)cc4c3)nn2)cc1OCCCNC(=N)N [Compound 104] | 25 (≈ 28.6 µM)
NCCCOc1cc(-c2cn(-c3cc(OCCCN)cc(OCCCN)c3)nn2)cc(-c2cn(-c3cc(OCCCN)cc(OCCCN)c3)nn2)c1 [Compound 105] | > 50
N=C(N)NCCCOc1cc(-c2cn(-c3cccc(OCCCNC(=N)N)c3)nn2)cc(-c2cn(-c3cccc(OCCCNC(=N)N)c3)nn2)c1 [Compound 106] | 50 (≈ 70.4 µM)
NCCCOc1cc(-c2cn(-c3cccc(OCCCN)c3)nn2)cc(-c2cn(-c3cccc(OCCCN)c3)nn2)c1 [Compound 107] | 25 (≈ 42.8 µM)

These molecules were tested on K. pneumoniae (13883) (assay: MIC assay (Table 1)). Details: Klebsiella pneumoniae, isolate 13883, read-out: MIC50 K. Pnuemnoiae.
Assay type: cell-based
Protocol: as §1, §2, §3, §4, §5

Compound | MIC50 [µg/mL]
N=C(N)NCCCOc1ccc(-n2cc(-c3ccc4ccc(-c5cn(-c6ccc(OCCCNC(=N)N)c(OCCCNC(=N)N)c6)nn5)cc4c3)nn2)cc1OCCCNC(=N)N [Compound 104] | > 50
NCCCOc1cc(-c2cn(-c3cc(OCCCN)cc(OCCCN)c3)nn2)cc(-c2cn(-c3cc(OCCCN)cc(OCCCN)c3)nn2)c1 [Compound 105] | > 50
N=C(N)NCCCOc1cc(-c2cn(-c3cccc(OCCCNC(=N)N)c3)nn2)cc(-c2cn(-c3cccc(OCCCNC(=N)N)c3)nn2)c1 [Compound 106] | > 50
NCCCOc1cc(-c2cn(-c3cccc(OCCCN)c3)nn2)cc(-c2cn(-c3cccc(OCCCN)c3)nn2)c1 [Compound 107] | > 50

What follows are molecules tested on P. aeruginosa (10145) (assay: MIC assay (Table 1)). Details: Pseudomonas aeruginosa, isolate 10145.
Assay type: cell-based

Compound | MIC50 [µg/mL]
N=C(N)NCCCOc1ccc(-n2cc(-c3ccc4ccc(-c5cn(-c6ccc(OCCCNC(=N)N)c(OCCCNC(=N)N)c6)nn5)cc4c3)nn2)cc1OCCCNC(=N)N [Compound 104] | 50 (≈ 57.1 µM)
NCCCOc1cc(-c2cn(-c3cc(OCCCN)cc(OCCCN)c3)nn2)cc(-c2cn(-c3cc(OCCCN)cc(OCCCN)c3)nn2)c1 [Compound 105] | 50 (≈ 68.5 µM)
N=C(N)NCCCOc1cc(-c2cn(-c3cccc(OCCCNC(=N)N)c3)nn2)cc(-c2cn(-c3cccc(OCCCNC(=N)N)c3)nn2)c1 [Compound 106] | 50 (≈ 70.4 µM)
NCCCOc1cc(-c2cn(-c3cccc(OCCCN)c3)nn2)cc(-c2cn(-c3cccc(OCCCN)c3)nn2)c1 [Compound 107] | 25 (≈ 42.8 µM)

What follows are molecules tested on NIH/3T3 cells (assay: Cytotoxicity colorimetric assay). Details: Mus musculus, NIH3T3, 1 h, one hour incubation in serum-free media.
Assay type: cell-based
Protocol: Cytotoxicity of the compounds are evaluated in a colorimetric assay using a transformed human liver cell line (HepG2, HB-8065) and an embryonic mouse cell line (NIH/3T3 cells, CRL-1658). This assay measures the bioreduction of a novel tetrazolium compound to a soluble formazan product by viable cells. HepG2 cells are seeded in 96 well plates at 2×10^4 cells/well in MEM medium with 10% fetal bovine serum (FBS) 24 hours prior to use. NIH/3T3 cells are seeded in 96 well plates at 2×10^4 cells/well in DMEM medium with 10% bovine calf serum (BCS) 24 hours prior to use. Cell monolayers are rinsed in serum-free media and incubated for one hour with a Compound in serum-free media. After incubation, the media is replaced with serum supplemented media and live cells are measured using the Cell Titer 96 Aqueous […] Assay kit (Promega, Madison, Wis.). EC50 values are determined using a four parameter logistic equation: Y=Bottom+(Top−Bottom)/(1+10^((Log EC50−X)*HillSlope)). […] Data is expressed as EC50 in μg/ml. Cytotoxicity is evaluated in a colorimetric assay using a transformed human liver cell line (HepG2, HB-8065) and an embryonic mouse cell line (NIH/3T3 cells, CRL-1658). This assay measures the bioreduction of a novel tetrazolium compound to a soluble formazan product by viable cells. HepG2 cells are seeded in 96 well plates at 3×10^4 cells/well in MEM medium with 10% fetal bovine serum (FBS) 24 hours prior to use. NIH/3T3 cells are seeded in 96 well plates at 2×10^4 cells/well in DMEM medium with 10% bovine calf serum (BCS) 24 hours prior to use. Cell monolayers are rinsed in serum-free media and incubated for one hour with test agent in serum-free media. After incubation, the media is replaced with serum supplemented media and live cells are measured using the Cell Titer 96 Aqueous […] Assay kit (Promega, Madison, Wis.). EC50 values are determined using a four parameter logistic equation: Y=Bottom+(Top−Bottom)/(1+10^((Log EC50−X)*HillSlope)).

Compound | EC50 [µg/mL]
N=C(N)NCCCOc1ccc(-n2cc(-c3ccc4ccc(-c5cn(-c6ccc(OCCCNC(=N)N)c(OCCCNC(=N)N)c6)nn5)cc4c3)nn2)cc1OCCCNC(=N)N [Compound 104] | 34.7 (≈ 39.7 µM)
NCCCOc1cc(-c2cn(-c3cc(OCCCN)cc(OCCCN)c3)nn2)cc(-c2cn(-c3cc(OCCCN)cc(OCCCN)c3)nn2)c1 [Compound 105] | 83.4 (≈ 114 µM)
N=C(N)NCCCOc1cc(-c2cn(-c3cccc(OCCCNC(=N)N)c3)nn2)cc(-c2cn(-c3cccc(OCCCNC(=N)N)c3)nn2)c1 [Compound 106] | 191 (≈ 269 µM)
NCCCOc1cc(-c2cn(-c3cccc(OCCCN)c3)nn2)cc(-c2cn(-c3cccc(OCCCN)c3)nn2)c1 [Compound 107] | 131 (≈ 224 µM)

Each molecule was assayed on HepG2 (assay: Cytotoxicity colorimetric assay). Details: Homo sapiens, HepG2, 1 h, one hour incubation in serum-free media.
Assay type: cell-based
Protocol: Cytotoxicity of the compounds are evaluated in a colorimetric assay using a transformed human liver cell line (HepG2, HB-8065) and an embryonic mouse cell line (NIH/3T3 cells, CRL-1658). This assay measures the bioreduction of a novel tetrazolium compound to a soluble formazan product by viable cells. HepG2 cells are seeded in 96 well plates at 2×10^4 cells/well in MEM medium with 10% fetal bovine serum (FBS) 24 hours prior to use. NIH/3T3 cells are seeded in 96 well plates at 2×10^4 cells/well in DMEM medium with 10% bovine calf serum (BCS) 24 hours prior to use. Cell monolayers are rinsed in serum-free media and incubated for one hour with a Compound in serum-free media. After incubation, the media is replaced with serum supplemented media and live cells are measured using the Cell Titer 96 Aqueous […] Assay kit (Promega, Madison, Wis.). EC50 values are determined using a four parameter logistic equation: Y=Bottom+(Top−Bottom)/(1+10^((Log EC50−X)*HillSlope)). Actual results from a representative cytotoxicity assay are shown below in Table 3. Data is expressed as EC50 in μg/ml. Cytotoxicity is evaluated in a colorimetric assay using a transformed human liver cell line (HepG2, HB-8065) and an embryonic mouse cell line (NIH/3T3 cells, CRL-1658). This assay measures the bioreduction of a novel tetrazolium compound to a soluble formazan product by viable cells. HepG2 cells are seeded in 96 well plates at 3×10^4 cells/well in MEM medium with 10% fetal bovine serum (FBS) 24 hours prior to use. NIH/3T3 cells are seeded in 96 well plates at 2×10^4 cells/well in DMEM medium with 10% bovine calf serum (BCS) 24 hours prior to use. Cell monolayers are rinsed in serum-free media and incubated for one hour with test agent in serum-free media. After incubation, the media is replaced with serum supplemented media and live cells are measured using the Cell Titer 96 Aqueous […] Assay kit (Promega, Madison, Wis.). EC50 values are determined using a four parameter logistic equation: Y=Bottom+(Top−Bottom)/(1+10^((Log EC50−X)*HillSlope)).

Compound | EC50 [µg/mL]
N=C(N)NCCCOc1ccc(-n2cc(-c3ccc4ccc(-c5cn(-c6ccc(OCCCNC(=N)N)c(OCCCNC(=N)N)c6)nn5)cc4c3)nn2)cc1OCCCNC(=N)N [Compound 104] | 54 (≈ 61.7 µM)
